In patent US20230364111A1 (priority 2020, published 2023):
Entries after “also recorded” stand apart in the source; their conditions may differ. Where two headings read alike, the source gives them in different places.

Experiments:
[1] = system: SARS-CoV-2 Wk-521 strain; assay: SARS-CoV-2 infection assay, viral RNA in culture supernatant (VeroE6/TMPRSS2 cells); format: cell-based
[2] = system: SARS-CoV-2; assay: SARS-CoV-2-induced cytopathic effect (CPE) in VeroE6/TMPRSS2 cells; format: cell-based
[3] = system: SARS-CoV-2; format: cell-based
[4] = system: SARS-CoV-2; assay: Time of addition assay, SARS-CoV-2 viral RNA; format: cell-based; settings: 15 μM RDV, 15 μM CLQ, 10 μM Oxy210, 10 μM Oxy133
[5] = system: double-membrane vesicles (DMVs) in SARS-CoV-2-infected cells; assay: Electron microscopy of double-membrane vesicle (DMV) formation; format: cell-based; settings: 10 μM Oxy210, Oxy232 (10 μM)
[6] = system: HCV NN (genotype-1b) subgenomic replicon; format: cell-based, Hepatitis C virus (HCV); settings: 10 μM Oxy210; 48 h; LucNeo #2 cells
[7] = system: HDV; format: cell-based, Hepatitis D virus (HDV); settings: 10 μM Oxy210 for six days; 200 nM MyrB; HepG2-hNTCP-C4 cells
[8] = format: in vivo, mice; settings: chow diet containing 4 mg Oxy210/g of food; 96 h
[9] = system: SARS-CoV-2 (isolate USA WA1/2020); assay: SARS-CoV-2 infection of Calu-3 cells (dsRNA+ cells, automated microscopy); format: cell-based; settings: Severe acute respiratory syndrome coronavirus 2, SARS-CoV-2 USA WA1/2020, MOI=0.5, 48 h post-infection, Calu-3
Protocol: (§1) FIGS. 12A-12C depict dose-response curves for Oxy232. (FIG. 12A) Secreted viral RNA in the VeroE6 culture supernatant 24 h post-inoculation was quantified by real-time RT-PCR. Cell viability of Oxy232 treated cells evaluated with an MTT assay. (FIG. 12B) Secreted viral RNA of 3 SARS-CoV-2 strains in the VeroE6 culture supernatant 24 h post-inoculation was quantified by real-time RT-PCR. (FIG. 12C) Calu-3 (ATCC) cells were pretreated with Oxy232 for 2 hours prior to continuous infection with SARS-CoV-2 (isolate USA WA1/2020) at MOI=0.5. 48 h post-infection, cells were fixed, immune-strained, and imaged by automated microscopy for infection (dsRNA+ cells/total cell number) and cell number.
According to a previously published report (Ohashi et al., Identification of Anti-Severe Acute Respiratory Syndrome-Related Coronavirus 2 (SARS-CoV-2) Oxysterol Derivatives In Vitro. Int J Mol Sci. 2021; 22(6):3163. PMCID: PMC8003796) inventors have tested a collection of naturally occurring and semisynthetic oxysterol derivatives in a SARS-CoV-2 cell culture infection assay in VeroE6/TMPRSS2 cells. […] See, Ohashi et al., Int J Mol Sci. 2021; 22(6):3163 and Dittmar et al. Drug repurposing screens reveal cell-type-specific entry pathways and FDA-approved drugs active against SARS-Cov-2. Cell Rep. […] PMCID: PMC7985926. […] Without wishing to be bound by a theory, biological activities of oxysterols, including measures of cell viability, can heavily depend on in vitro assay conditions, such as the fetal bovine serum concentration or the duration of pretreatment with the compounds, among other factors, that may not translate to the in vivo safety of the compounds.

[10] = system: SARS-CoV-2 TY7-501 (Brazil strain); assay: SARS-CoV-2 TY7-501 strain infection in VeroE6/TMPRSS2 cells; format: cell-based; settings: viral RNA 24 h post-inoculation
Protocol: as §1
(§2) According to a previously published report (Ohashi et al., Identification of Anti-Severe Acute Respiratory Syndrome-Related Coronavirus 2 (SARS-CoV-2) Oxysterol Derivatives In Vitro. Int J Mol Sci. 2021; 22(6):3163. PMCID: PMC8003796) inventors have tested a collection of naturally occurring and semisynthetic oxysterol derivatives in a SARS-CoV-2 cell culture infection assay in VeroE6/TMPRSS2 cells. […] See, Ohashi et al., Int J Mol Sci. 2021; 22(6):3163 and Dittmar et al. Drug repurposing screens reveal cell-type-specific entry pathways and FDA-approved drugs active against SARS-Cov-2. Cell Rep. […] PMCID: PMC7985926. […]

[11] = system: SARS-CoV-2 TY8-612 (South Africa strain); assay: SARS-CoV-2 TY8-612 strain infection in VeroE6/TMPRSS2 cells; format: cell-based; settings: viral RNA 24 h post-inoculation
Protocol: as §1, §2

[12] = system: idiopathic pulmonary fibrosis (IPF); assay: Mouse model of idiopathic pulmonary fibrosis (IPF); format: in vivo; settings: Parhami et al., unpublished observations
[13] = In vivo safety and tolerability in mice; settings: mouse
[14] = system: VeroE6/TMPRSS2 cells; settings: read-out: CC50 (VeroE6); VeroE6
[15] = single oral dose 200 mg/kg
[16] = system: Calu-3 cells; settings: at higher concentrations; automated microscopy
[17] = system: TGFβ signaling; settings: previously reported [16]; fibroblastic cells and tumor cells; cited from earlier work
[18] = system: Hedgehog (Hh) signaling; settings: previously reported [16]; fibroblastic cells and tumor cells; cited from earlier work
[19] = in vivo; settings: balb/c, mouse, po, 200 mg/kg
[20] = in vitro; settings: African green monkey
[21] = in vitro; settings: human

C[C@]12CC[C@H]3[C@@H](CC=C4C[C@@H](O)CC[C@@]43C)[C@@H]1CC[C@@H]2[C@](C)(O)CCc1cccnc1 [Oxy210, (3S,8S,9S,10R,13S,14S,17S)-17-((R)-2-hydroxy-4-(pyridin-3-yl)butan-2-yl)-10,13-dimethyl-2,3,4,7,8,9,10,11,12,13,14,15,16,17-tetradecahydro-1H-cyclopenta[a]phenanthren-3-ol]
viral RNA in the culture supernatant ([1]; 24 h post-inoculation, natural oxysterols up to 30 μM, semi-synthetic up to 15 μM): reduced viral RNA level in a dose-dependent manner
IC50 ([1]; Severe acute respiratory syndrome coronavirus 2, Vero C1008, SARS-CoV-2, VeroE6, read-out: IC50 (VeroE6)): 5.5 µM
IC90 ([1]; Severe acute respiratory syndrome coronavirus 2, Vero C1008, SARS-CoV-2, VeroE6, read-out: IC90 (VeroE6)): 8.6 µM
IC90 ([1]; Severe acute respiratory syndrome coronavirus 2, VeroE6/TMPRSS2, 24 h, SARS-CoV-2 viral RNA in culture supernatant, 24 h post-inoculation, VeroE6/TMPRSS2 cells, read-out: IC90): 8.6 µM
IC50 ([1]; Severe acute respiratory syndrome coronavirus 2, SARS-CoV-2 viral RNA in culture supernatant, 24 h post-inoculation, VeroE6/TMPRSS2 cells, read-out: IC50): 5.5 µM
reduction of viral RNA production at the maximum ([1]; at 15 μM): 99.4%
anti-SARS-CoV-2 activity ([1]; cell-based assay, VeroE6/TMPRSS2): superior anti-SARS-CoV-2 activity; also recorded: robust anti-SARS-CoV-2 activity
viral RNA levels in the culture supernatant ([1]; oxysterol derivatives at 10 or 30 uM, 24 h post-inoculation, VeroE6/TMPRSS2): strongly reduced viral RNA levels
SARS-CoV-2 propagation in cultured cells ([1]; statement in words): potently inhibits the SARS-CoV-2 propagation
SARS-CoV-2 replication ([1]; statement in words): drastically reduced SARS-CoV-2 replication; also recorded: inhibits the SARS-CoV-2 genome replication; also recorded: potent replication inhibitor
antiviral effect against SARS-CoV-2 (dose response, viral RNA) ([1]; various concentrations, VeroE6/TMPRSS2): highly potent antiviral effect
virus-induced CPE ([2]; 48 h post-inoculation, 10 μM RDV, 30 μM cholesterol, 30 μM 7-KC, 10 μM Oxy133, 10 μM Oxy210, MOI 0.001): alleviates the virus-induced CPE; also recorded: blocked
SARS-CoV-2-induced cytopathic effect ([2]; oxy8 7.5 uM, oxy16 20 uM, oxy186 20 uM, oxy210 10 uM, 48 h, VeroE6/TMPRSS2): protected cells from cytopathic effect
SARS-CoV-2 propagation / spread of infection (viral N protein, immunofluorescence) [3]: blocked
viral RNA, compound present during the whole life cycle ([4]; 24 h): clearly reduced viral RNA levels
viral RNA, compound present post-entry ([4]; added 2 h post-inoculation for 21 h): clearly reduced viral RNA levels; also recorded: predominantly inhibits the post-entry process
DMV formation in SARS-CoV-2-infected cells [5]: disrupting the formation of double-membrane vesicles; also recorded: reduced viral replication and the formation of double-membrane vesicles; also recorded: remarkably reduced the DMV formation; also recorded: reduced the formation of DMVs; also recorded: substantially reduced; also recorded: inhibit DMV formation
HCV replication (luciferase activity) [6]: reduced the DMV-dependent RNA replication of HCV; also recorded: Antiviral effects of Oxy210 were also observed during the replication of HCV
HDV replication / infection (HDV RNA, real-time RT-PCR) [7]: antiviral activity was not observed in HDV infection
adverse effects / body weight [8]: No adverse effects or significant loss of body weight
IC50 ([9]; read-out: IC50 (Calu-3)): 1.5 µM
IC90 ([9]; read-out: IC90 (Calu-3)): 4.24 µM
activity against the TY7-501 strain [10]: undiminished activity
activity against the TY8-612 strain [11]: undiminished activity
effects in a mouse model of idiopathic pulmonary fibrosis (IPF) [12]: protective effects
in vivo safety and tolerability in mice [13]: excellent in vivo safety and tolerability
CC50 [14]: > 15 µM
Tmax ([15]; plasma): 1 h
Cmax ([15]; read-out: peak plasma concentration (Cmax), 200 mg/kg): 19.4 µM
peak plasma concentration (Cmax) [15]: 8,155 ng/mL
tolerability [15]: well tolerated
cell viability in Calu-3 cells [16]: do affect cell viability
TGFβ signaling [17]: inhibited
Hedgehog (Hh) signaling [18]: inhibited
AUC [19]: 29300 ng·h/mL
Cmax [19]: 19 µM
CC50 [20]: > 15 µM
CC50 [21]: 8.3 µM
